Reference: patent publication US12655125B2 (SIRONAX LTD., priority 2020, dated 2026)

The molecules below were run on HT-29 cells (assay: HT29 Cells 0FBS Assay In Vitro (TNF-α/SMAC mimetic/zVAD-FMK induced necroptosis, CellTiter-Glo cell viability)). Conditions: Homo sapiens; HT-29 cells, FBS free medium, TNF-α (10 ng/ml), SMAC mimetic (6 uM), zVAD-FMK (10 μM), 20 hours; geometric mean EC50; read-out: Cell activity (EC50) of Compounds 1-116.
Assay type: cell-based
Summary of the method: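 Viability was measured by ATP luminescence (CellTiter-Glo) after 20 h at 37° C of compound exposure in 10-point, 1:3 dilutions. Necroptosis in FBS-free HT-29 cultures was driven by a TNF-α (10 ng/ml), SMAC mimetic (6 μM) and zVAD-FMK (10 μM) cocktail. EC50 values are geometric means from duplicate curves.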

Row | SMILES | EC50 [µM]
1 | Cc1cc(-c2cc(OC3CN(C(=O)N4N=CC[C@H]4c4cc(F)cc(F)c4)C3)c(F)cn2)n(C)n1 [compound 36, (S)-(5-(3,5-difluorophenyl)-4,5-dihydro-1H-pyrazol-1-yl)(3-((2-(1,3-dimethyl-1H-pyrazol-5-yl)-5-fluoropyridin-4-yl)oxy)azetidin-1-yl)methanone] | 0.0001 to 0.1
2 | Cc1cc(-c2ncc(F)c(OC3CN(C(=O)N4N=CC[C@H]4c4cc(F)cc(F)c4)C3)n2)n(C)n1 [compound 35, (S)-(5-(3,5-difluorophenyl)-4,5-dihydro-1H-pyrazol-1-yl)(3-((2-(1,3-dimethyl-1H-pyrazol-5-yl)-5-fluoropyrimidin-4-yl)oxy)azetidin-1-yl)methanone] | 0.0001 to 0.1
3 | Cc1noc(C)c1-c1ncc(F)c(OC2CN(C(=O)N3N=CC[C@H]3c3cc(F)cc(F)c3)C2)n1 [compound 20, (S)-(5-(3,5-difluorophenyl)-4,5-dihydro-1H-pyrazol-1-yl)(3-((2-(3,5-dimethylisoxazol-4-yl)-5-fluoropyrimidin-4-yl)oxy)azetidin-1-yl)methanone] | 0.0001 to 0.1
4 | Cn1cncc1-c1ccc(F)c(OC2CN(C(=O)N3N=CC[C@H]3c3cc(F)cc(F)c3)C2)n1 [compound 6, (S)-(5-(3,5-difluorophenyl)-4,5-dihydro-1H-pyrazol-1-yl)(3-((3-fluoro-6-(1-methyl-1H-imidazol-5-yl)pyridin-2-yl)oxy)azetidin-1-yl)methanone] | 0.0001 to 0.1
5 | CNC(=O)CNc1cnn(C)c1-c1cc(OC2CN(C(=O)N3N=CC[C@H]3c3cc(F)cc(F)c3)C2)c(F)cn1 [compound 61, (S)-2-((5-(4-((1-(5-(3,5-difluorophenyl)-4,5-dihydro-1H-pyrazole-1-carbonyl)azetidin-3-yl)oxy)-5-fluoropyridin-2-yl)-1-methyl-1H-pyrazol-4-yl)amino)-N-methylacetamide] | 0.0001 to 0.1
6 | Cc1scnc1-c1ccc(F)c(OC2CN(C(=O)N3N=CC[C@H]3c3cc(F)cc(F)c3)C2)n1 [compound 13, (S)-(5-(3,5-difluorophenyl)-4,5-dihydro-1H-pyrazol-1-yl)(3-((3-fluoro-6-(5-methylthiazol-4-yl)pyridin-2-yl)oxy)azetidin-1-yl)methanone] | 0.0001 to 0.1
7 | Cn1ncc(Cl)c1-c1ncc(F)c(OC2CN(C(=O)N3N=CC[C@H]3c3cc(F)cc(F)c3)C2)n1 [compound 84, (S)-(3-((2-(4-chloro-1-methyl-1H-pyrazol-5-yl)-5-fluoropyrimidin-4-yl)oxy)azetidin-1-yl)(5-(3,5-difluorophenyl)-4,5-dihydro-1H-pyrazol-1-yl)methanone] | 0.0001 to 0.1
8 | Cc1nc(C)n(-c2ncc(F)c(OC3CN(C(=O)N4N=CC[C@H]4c4cc(F)cc(F)c4)C3)n2)n1 [compound 103, (S)-(5-(3,5-difluorophenyl)-4,5-dihydro-1H-pyrazol-1-yl)(3-((2-(3,5-dimethyl-1H-1,2,4-triazol-1-yl)-5-fluoropyrimidin-4-yl)oxy)azetidin-1-yl)methanone] | 0.0001 to 0.1
9 | Cn1ncc(-c2cc(OC3CN(C(=O)N4N=CC[C@H]4c4cc(F)cc(F)c4)C3)c(F)cn2)n1 [compound 33, (S)-(5-(3,5-difluorophenyl)-4,5-dihydro-1H-pyrazol-1-yl)(3-((5-fluoro-2-(2-methyl-2H-1,2,3-triazol-4-yl)pyridin-4-yl)oxy)azetidin-1-yl)methanone] | 0.0001 to 0.1
10 | Cc1csnc1-c1ncc(F)c(OC2CN(C(=O)N3N=CC[C@H]3c3cc(F)cc(F)c3)C2)n1 [compound 18, (S)-(5-(3,5-difluorophenyl)-4,5-dihydro-1H-pyrazol-1-yl)(3-((5-fluoro-2-(4-methylisothiazol-3-yl)pyrimidin-4-yl)oxy)azetidin-1-yl)methanone] | 0.0001 to 0.1
11 | Cc1ncc(-c2ncc(F)c(OC3CN(C(=O)N4N=CC[C@H]4c4cc(F)cc(F)c4)C3)n2)s1 [compound 25, (S)-(5-(3,5-difluorophenyl)-4,5-dihydro-1H-pyrazol-1-yl)(3-((5-fluoro-2-(2-methylthiazol-5-yl)pyrimidin-4-yl)oxy)azetidin-1-yl)methanone] | 0.0001 to 0.1
12 | CNC(=O)c1cnn(C)c1-c1cc(OC2CN(C(=O)N3N=CC[C@H]3c3cc(F)cc(F)c3)C2)c(F)cn1 [compound 67, (S)-5-(4-((1-(5-(3,5-difluorophenyl)-4,5-dihydro-1H-pyrazole-1-carbonyl)azetidin-3-yl)oxy)-5-fluoropyridin-2-yl)-N,1-dimethyl-1H-pyrazole-4-carboxamide] | 0.0001 to 0.1
13 | COCCn1cc(-c2cc(OC3CN(C(=O)N4N=CC[C@H]4c4cc(F)cc(F)c4)C3)c(F)cn2)c(C)n1 [compound 86, (S)-(5-(3,5-difluorophenyl)-4,5-dihydro-1H-pyrazol-1-yl)(3-((5-fluoro-2-(1-(2-methoxyethyl)-3-methyl-1H-pyrazol-4-yl)pyridin-4-yl)oxy)azetidin-1-yl)methanone] | 0.0001 to 0.1
14 | CCNC(=O)c1cnn(C)c1-c1cc(OC2CN(C(=O)N3N=CC[C@H]3c3cc(F)cc(F)c3)C2)c(F)cn1 [compound 71, (S)-5-(4-((1-(5-(3,5-difluorophenyl)-4,5-dihydro-1H-pyrazole-1-carbonyl)azetidin-3-yl)oxy)-5-fluoropyridin-2-yl)-N-ethyl-1-methyl-1H-pyrazole-4-carboxamide] | 0.0001 to 0.1
15 | CN(C)c1cnn(C)c1-c1cc(OC2CN(C(=O)N3N=CC[C@H]3c3cc(F)cc(F)c3)C2)c(F)cn1 [compound 55, (S)-(5-(3,5-difluorophenyl)-4,5-dihydro-1H-pyrazol-1-yl)(3-((2-(4-(dimethylamino)-1-methyl-1H-pyrazol-5-yl)-5-fluoropyridin-4-yl)oxy)azetidin-1-yl)methanone] | 0.0001 to 0.1

Same assay, conditions: Homo sapiens; HT-29 cells, FBS free medium, TNF-α (10 ng/ml), SMAC mimetic (6 uM), zVAD-FMK (10 μM), 20 hours; geometric mean EC50; read-out: Cell activity (EC50) of Compounds 117-281

Row | SMILES | EC50 [µM]
16 | CNC(=O)Cc1c(C)nn(-c2cc(OC3CN(C(=O)N4N=CC[C@H]4c4cc(F)cc(F)c4)C3)c(F)cn2)c1C [compound 226, (S)-2-(1-(4-((1-(5-(3,5-difluorophenyl)-4,5-dihydro-1H-pyrazole-1-carbonyl)azetidin-3-yl)oxy)-5-fluoropyridin-2-yl)-3,5-dimethyl-1H-pyrazol-4-yl)-N-methylacetamide] | 0.0001 to 0.1
17 | Cc1c(C#N)nn(C)c1-c1cc(OC2CN(C(=O)N3N=CC[C@H]3c3cc(F)cc(F)c3)C2)c(F)cn1 [compound 150, (S)-5-(4-((1-(5-(3,5-difluorophenyl)-4,5-dihydro-1H-pyrazole-1-carbonyl)azetidin-3-yl)oxy)-5-fluoropyridin-2-yl)-1,4-dimethyl-1H-pyrazole-3-carbonitrile] | 0.0001 to 0.1
18 | CN(C)CCNc1cnn(C)c1-c1cc(OC2CN(C(=O)N3N=CC[C@H]3c3cc(F)cc(F)c3)C2)c(F)cn1 [compound 119, (S)-(5-(3,5-difluorophenyl)-4,5-dihydro-1H-pyrazol-1-yl)(3-((2-(4-((2-(dimethylamino)ethyl)amino)-1-methyl-1H-pyrazol-5-yl)-5-fluoropyridin-4-yl)oxy)azetidin-1-yl)methanone] | 0.1 to 1
19 | Cc1c(-c2cc(OC3CN(C(=O)N4N=CC[C@H]4c4cc(F)cc(F)c4)C3)c(F)cn2)nn(C)c1C1=NCCN1 [compound 266, (S)-(5-(3,5-difluorophenyl)-4,5-dihydro-1H-pyrazol-1-yl)(3-((2-(5-(4,5-dihydro-1H-imidazol-2-yl)-1,4-dimethyl-1H-pyrazol-3-yl)-5-fluoropyridin-4-yl)oxy)azetidin-1-yl)methanone] | 0.0001 to 0.1
20 | Cc1nn(-c2cc(OC3CN(C(=O)N4N=CC[C@H]4c4cc(F)cc(F)c4)C3)c(F)cn2)c(C)c1C(=O)NC1CC1 [compound 232, (S)—N-cyclopropyl-1-(4-((1-(5-(3,5-difluorophenyl)-4,5-dihydro-1H-pyrazole-1-carbonyl)azetidin-3-yl)oxy)-5-fluoropyridin-2-yl)-3,5-dimethyl-1H-pyrazole-4-carboxamide] | 0.0001 to 0.1
21 | Cc1nn(-c2cc(OC3CN(C(=O)N4N=CC[C@H]4c4cc(F)cc(F)c4)C3)c(F)cn2)c(C)c1CC(=O)O [compound 278, (S)-2-(1-(4-((1-(5-(3,5-difluorophenyl)-4,5-dihydro-1H-pyrazole-1-carbonyl)azetidin-3-yl)oxy)-5-fluoropyridin-2-yl)-3,5-dimethyl-1H-pyrazol-4-yl)acetic acid] | 0.1 to 1
22 | Cc1nn(C2CNC2)c(C)c1-c1cc(OC2CN(C(=O)N3N=CC[C@H]3c3cc(F)cc(F)c3)C2)c(F)cn1 [compound 131, (S)-(3-((2-(1-(azetidin-3-yl)-3,5-dimethyl-11H-pyrazol-4-yl)-5-fluoropyridin-4-yl)oxy)azetidin-1-yl)(5-(3,5-difluorophenyl)-4,5-dihydro-1H-pyrazol-1-yl)methanone] | 0.0001 to 0.1
23 | CC(=O)Nc1c(C)nn(-c2cc(OC3CN(C(=O)N4N=CC[C@H]4c4cc(F)cc(F)c4)C3)c(F)cn2)c1C [compound 140, (S)—N-(1-(4-((1-(5-(3,5-difluorophenyl)-4,5-dihydro-1H-pyrazole-1-carbonyl)azetidin-3-yl)oxy)-5-fluoropyridin-2-yl)-3,5-dimethyl-1H-pyrazol-4-yl)acetamide] | 0.0001 to 0.1
24 | Cn1ncc(C(=O)NC2CC2)c1-c1cc(OC2CN(C(=O)N3N=CC[C@H]3c3cc(F)cc(F)c3)C2)c(F)cn1 [compound 134, (S)—N-cyclopropyl-5-(4-((1-(5-(3,5-difluorophenyl)-4,5-dihydro-1H-pyrazole-1-carbonyl)azetidin-3-yl)oxy)-5-fluoropyridin-2-yl)-1-methyl-1H-pyrazole-4-carboxamide] | 0.0001 to 0.1
25 | Cc1nn(-c2cc(OC3CN(C(=O)N4N=CC[C@H]4c4cc(F)cc(F)c4)C3)c(F)cn2)c(C)c1C(=O)NCCN(C)C [compound 256, (S)-1-(4-((1-(5-(3,5-difluorophenyl)-4,5-dihydro-1H-pyrazole-1-carbonyl)azetidin-3-yl)oxy)-5-fluoropyridin-2-yl)-N-(2-(dimethylamino)ethyl)-3,5-dimethyl-1H-pyrazole-4-carboxamide] | 0.0001 to 0.1
